How the values were obtained:
Adrenergic α1B = target: T1, Adrenergic α1B (Rattus norvegicus, UniProt P15823); experiment: Safetyscreen: Adrenergic α1B; type: binding; settings: read-out: % Inh. Adrenergic α1B
T1 construct: Eurofins Cerep Panlabs (contract panel)

Transporter, GABA = target: T2, Transporter, GABA (Rattus norvegicus, UniProt P23978); experiment: Safetyscreen: GABA transporter; type: binding; settings: read-out: % Inh. Transporter, GABA
T2 construct: purchased Eurofins Cereps Panlabs

Glucocorticoid = target: T3, Glucocorticoid (Homo sapiens, UniProt P04150); experiment: Safetyscreen: Glucocorticoid; type: binding; settings: read-out: % Inh. Glucocorticoid
T3 construct: purchased Eurofins Cereps Panlabs
T3 sequence (P04150 whole entry): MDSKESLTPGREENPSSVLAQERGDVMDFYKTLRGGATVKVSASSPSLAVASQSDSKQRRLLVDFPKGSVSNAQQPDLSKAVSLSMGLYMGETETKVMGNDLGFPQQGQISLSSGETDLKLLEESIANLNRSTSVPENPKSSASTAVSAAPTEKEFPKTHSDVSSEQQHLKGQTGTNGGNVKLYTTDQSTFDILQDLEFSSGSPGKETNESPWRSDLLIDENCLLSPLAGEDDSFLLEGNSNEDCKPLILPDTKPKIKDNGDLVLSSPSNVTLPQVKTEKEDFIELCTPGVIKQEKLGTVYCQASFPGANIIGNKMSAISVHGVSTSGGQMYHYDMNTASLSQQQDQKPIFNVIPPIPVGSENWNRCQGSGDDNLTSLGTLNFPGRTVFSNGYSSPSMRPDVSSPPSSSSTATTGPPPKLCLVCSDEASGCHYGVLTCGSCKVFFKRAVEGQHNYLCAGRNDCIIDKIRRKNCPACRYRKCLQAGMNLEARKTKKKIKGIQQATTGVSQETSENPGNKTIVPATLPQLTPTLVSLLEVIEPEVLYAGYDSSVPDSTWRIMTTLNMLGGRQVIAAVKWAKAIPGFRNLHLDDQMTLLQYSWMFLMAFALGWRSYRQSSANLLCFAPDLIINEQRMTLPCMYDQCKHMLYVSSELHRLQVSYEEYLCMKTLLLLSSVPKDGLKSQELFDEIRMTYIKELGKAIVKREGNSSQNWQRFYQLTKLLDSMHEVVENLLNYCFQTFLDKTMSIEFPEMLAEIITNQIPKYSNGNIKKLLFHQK

Glutamate, NMDA, Glycine = experiment: Safetyscreen: NMDA, Glycine; type: binding, rat; settings: 10 μM
Huh7 tumors = Huh7 tumors in NU/J mice; type: in vivo, mouse
Protocol: FIGS. 26A-26H: Raldh1-INH suppresses HCC growth by altering macrophage functions. FIG. 26A: Huh7 tumor-bearing NU/J mice were treated with C86 (i.p, 10 mg/kg) every day starting when tumor size was approximately 50 mm^3. Tumor volume was measured every 2 days. […] Three or more independent experiments were performed with at least three replicates per experimental group. Unpaired t test, two-tailed. FIG. 26B: AldeRed assay at endpoint on Huh7 tumor treated as described in FIG. 26A. […] Three or more independent experiments were performed with at least three replicates per experimental group. Unpaired t test, two-tailed. FIG. 26C: Huh7 tumor-bearing nude mice were treated with different dose of C86 every day. Tumor volume was measured every 2-3 days. […] Two independent experiments were performed with at least three replicates per experimental group. Unpaired t test, two-tailed. FIG. 26D: Body weight measured every 3-5 days for the experiment outlined in FIG. 26C. FIG. 26E: Parental Huh7 or RALDH1-KO Huh7 cells were implanted subcutaneously into NU/J mice and treated with C86 (i.p, 10 mg/kg) or vehicle (control) every day. […] Three or more independent experiments were performed with at least three replicates per experimental group. Unpaired t test, two-tailed. FIG. 26F: Huh7 tumor-bearing NU/J mice were treated with clodronate liposomes (CloLipo) and/or C86. […] Two independent experiments were performed with at least three replicates per experimental group. Unpaired t test, two-tailed. FIG. 26G: Murine Hepa 1-6 tumors were implanted subcutaneously into C57BL6/J WT mice or LyMCre:RosadnRAR mice. Expression of the dominant negative RAR in myeloid cells slows tumor growth. Two independent experiments were performed with at least three replicates per experimental group. Unpaired t test, two-tailed. FIG. 26H: Huh7 cells were implanted subcutaneously into NU/J mice. When tumor size reached about 50 mm^3, mice were intraperitoneally injected vehicle (control) or C86 daily with or without BMS493 treatment intratumorally every 3 days. BMS493 and C86 suppress tumor growth with the combination showing higher suppression than monotherapy. *, P<0.05; **, P<0.01; ***, P<0.001; n.s., not significant.
Cultured Huh7, Huh1, Hepa 1-6, Hep55, and FS (as indicated in figure legends) tumor cells were detached using 0.25% trypsin (Gibco, catalog #25200056), washed once with 1×PBS, and counted before implantation. 3~6×10^6 tumor cells were implanted subcutaneously (s.c.) into shaved flanks of recipient mice. Tumor dimensions were measured using a caliper starting at the day indicated in the accompanying figure legend and every two to three days thereafter; volume was calculated by using formula Length*Width^2/2. Tumor volumes of 2,000 mm^3, tumor length of 2 cm or tumor ulceration were used as endpoints for survival analyses.
Compound-86, 97 and 99 powder was dissolved in 20% HPβCD saline (2-Hydroxypropyl)-[…]). Drug was administered i.p. or p.o. starting when tumor volume reached 50-150 mm^3 and repeated every day.

[1] = target: T4, Transporter, Norepinephrine (NET) (Homo sapiens, UniProt P23975); experiment: Safetyscreen: NET; type: binding; settings: read-out: % Inh. Transporter, Norepinephrine (NET)
T4 construct: purchased Eurofins Cereps Panlabs
T4 sequence (P23975 whole entry): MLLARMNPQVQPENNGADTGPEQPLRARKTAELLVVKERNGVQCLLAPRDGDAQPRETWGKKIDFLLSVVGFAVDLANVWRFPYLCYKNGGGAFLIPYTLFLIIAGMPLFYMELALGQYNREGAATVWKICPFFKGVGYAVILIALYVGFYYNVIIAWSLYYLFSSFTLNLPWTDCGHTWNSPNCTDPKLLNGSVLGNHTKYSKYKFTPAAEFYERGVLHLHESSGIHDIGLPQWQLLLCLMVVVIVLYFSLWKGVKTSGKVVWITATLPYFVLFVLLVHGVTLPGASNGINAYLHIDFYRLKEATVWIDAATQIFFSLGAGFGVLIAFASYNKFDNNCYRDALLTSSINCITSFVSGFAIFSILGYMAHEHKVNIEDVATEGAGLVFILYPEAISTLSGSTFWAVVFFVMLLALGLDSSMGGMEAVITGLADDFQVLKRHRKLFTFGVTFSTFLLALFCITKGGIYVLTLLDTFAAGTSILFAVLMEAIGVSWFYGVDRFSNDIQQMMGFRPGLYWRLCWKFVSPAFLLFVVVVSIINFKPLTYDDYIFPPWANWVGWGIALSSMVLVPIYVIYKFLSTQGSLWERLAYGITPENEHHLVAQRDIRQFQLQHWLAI

[2] = Huh7 tumor-bearing nude mice, once daily dosing

T1 sequence (P15823 whole entry): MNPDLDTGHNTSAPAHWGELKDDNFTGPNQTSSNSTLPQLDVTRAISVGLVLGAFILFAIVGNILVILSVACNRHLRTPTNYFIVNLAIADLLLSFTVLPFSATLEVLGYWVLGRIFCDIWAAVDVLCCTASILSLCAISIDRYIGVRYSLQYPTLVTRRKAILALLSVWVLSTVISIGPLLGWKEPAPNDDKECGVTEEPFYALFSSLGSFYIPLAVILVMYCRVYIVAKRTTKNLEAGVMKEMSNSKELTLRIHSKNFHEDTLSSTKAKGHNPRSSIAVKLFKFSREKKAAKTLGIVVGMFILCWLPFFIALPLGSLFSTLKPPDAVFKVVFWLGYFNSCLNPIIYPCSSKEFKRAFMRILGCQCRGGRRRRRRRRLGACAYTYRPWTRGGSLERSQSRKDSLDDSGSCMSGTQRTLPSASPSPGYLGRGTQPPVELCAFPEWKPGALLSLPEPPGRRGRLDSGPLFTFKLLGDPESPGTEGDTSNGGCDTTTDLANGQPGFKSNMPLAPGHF

CS(=O)(=O)N1CCN(C(=O)c2cnc3ccc(F)cc3c2N2CCC(C#N)(c3ccccc3)CC2)CC1 [Compound C-86, 1-(6-fluoro-3-(4-(methylsulfonyl)piperazine-1-carbonyl)quinolin-4-yl)-4-phenylpiperidine-4-carbonitrile]
inhibition at 10 µM (Adrenergic α1B): 6%
inhibition at 10 µM (Transporter, GABA): 4%
inhibition at 10 µM (Glucocorticoid): 9%
% Inh. Glutamate, NMDA, Glycine (Glutamate, NMDA, Glycine): 20%
tumor mass and volume (Huh7 tumors; Huh7, C-86 versus C-97 (FIGS. 17A-17B)): significant reduction in tumor mass and volume
dose dependence of effect on tumor volume and tumor mass (Huh7 tumors; Huh7, FIGS. 13A-13B): dose-dependent effect
tumor suppression in the absence of TAMs (Huh7 tumors; Huh7, TAM depletion with CloLipo): did not further suppress tumors
tumor mass and volume (Huh7 tumors; Huh7, intraperitoneal administration, compared to a control (FIGS. 12B-12C)): significant reduction in tumor mass and volume
tumor mass (Huh7 tumors; Huh7, macrophage depletion study (FIG. 14B)): significant reduction in tumor mass
dose at which weight loss was observed (Huh7 tumors; [2]): 40 mg/kg
dose with tumor suppressive effects (Huh7 tumors; [2]): > 10 mg/kg
RALDH activity in tumor cells (AldeRed at endpoint) (Huh7 tumors; Huh7 tumors, CD45− cells): reduced RADLH activity
response of RALDH1-KO HCC tumors to therapy (Huh7 tumors; RALDH1-KO Huh7, i.p, 10 mg/kg every day): did not respond
tumor inhibition (Huh7 tumors; huh7 in immunodeficient mice, i.p, 10 mg/kg every day): significant tumor inhibition
inhibition at 10 µM [1]: 35%

From patent US20260248799A1, “COMBINATIONS OF RETINALDEHYDE DEHYDROGENASE 1 (RALDH1) INHIBITORS AND IMMUNOSTIMULATORS AND METHODS USING SAME” (The Trustees of the University of Pennsylvania, priority 2023, published 2026)
